From PubChem BioAssay (NCI)
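These data come from cells grown in 96-well plates and exposed to compound for 48 hours at five concentrations. GI50 = concentration required for 50% inhibition of growth. TGI: concentration producing complete growth inhibition.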

What was measured:
Assay in all cases: inhibition of tumour cell growth, NCI panel, 48 h
OVCAR-8 ovarian = test system: OVCAR-8 ovarian
RXF 393 renal = test system: RXF 393 renal
SW-620 colon = test system: SW-620 colon
ACHN renal = test system: ACHN renal
MDA-MB-468 breast = test system: MDA-MB-468 breast
HL-60(TB) leukemia = test system: HL-60(TB) leukemia
SF-295 CNS = test system: SF-295 CNS
HS 578T breast = test system: HS 578T breast
MDA-MB-231 breast = test system: MDA-MB-231 breast
SK-MEL-28 melanoma = test system: SK-MEL-28 melanoma
NCI-H522 lung = test system: NCI-H522 lung
SF-539 CNS = test system: SF-539 CNS
M14 melanoma = test system: M14 melanoma
HOP-92 NSCLC = test system: HOP-92 NSCLC
CCRF-CEM leukemia = test system: CCRF-CEM leukemia
PC-3 prostate = test system: PC-3 prostate
SNB-19 CNS = test system: SNB-19 CNS
SK-MEL-2 melanoma = test system: SK-MEL-2 melanoma
SN12C renal = test system: SN12C renal
MALME-3M melanoma = test system: MALME-3M melanoma
U251 CNS = test system: U251 CNS
TK-10 renal = test system: TK-10 renal
NCI-H226 lung = test system: NCI-H226 lung
BT-549 breast = test system: BT-549 breast
DU-145 prostate = test system: DU-145 prostate
RPMI-8226 leukemia = test system: RPMI-8226 leukemia
MOLT-4 leukemia = test system: MOLT-4 leukemia
MCF7 breast = test system: MCF7 breast
UO-31 renal = test system: UO-31 renal
SK-MEL-5 melanoma = test system: SK-MEL-5 melanoma
UACC-257 melanoma = test system: UACC-257 melanoma
KM12 colon = test system: KM12 colon
A549 NSCLC = test system: A549 NSCLC
MDA-MB-435 = test system: MDA-MB-435
SF-268 CNS = test system: SF-268 CNS
OVCAR-4 ovarian = test system: OVCAR-4 ovarian
EKVX NSCLC = test system: EKVX NSCLC
COLO 205 colon = test system: COLO 205 colon
HCC-2998 colon = test system: HCC-2998 colon
NCI-H23 lung = test system: NCI-H23 lung
LOX IMVI melanoma = test system: LOX IMVI melanoma
T-47D breast = test system: T-47D breast
A498 renal = test system: A498 renal
HCT-15 colon = test system: HCT-15 colon
SK-OV-3 ovarian = test system: SK-OV-3 ovarian
SR leukemia = test system: SR leukemia
786-0 renal = test system: 786-0 renal
NCI-H460 lung = test system: NCI-H460 lung
HT29 colon = test system: HT29 colon
OVCAR-3 ovarian = test system: OVCAR-3 ovarian
OVCAR-5 ovarian = test system: OVCAR-5 ovarian
HOP-62 NSCLC = test system: HOP-62 NSCLC
HCT-116 colon = test system: HCT-116 colon
CAKI-1 renal = test system: CAKI-1 renal
IGROV1 ovarian = test system: IGROV1 ovarian
K-562 leukemia = test system: K-562 leukemia
UACC-62 melanoma = test system: UACC-62 melanoma

Work on `Cn1cc(-c2cc(N)n3nc(-c4c[nH]c5ccc(Cl)cc45)cc3n2)c2cc(Br)cnc21` yielded a GI50 (OVCAR-8 ovarian) of 2.29 µM, a TGI (OVCAR-8 ovarian) of 5.22 µM and a GI50 (RXF 393 renal) of 1.72 µM. For the same compound, the TGI (RXF 393 renal) was 3.32 µM, the GI50 (SW-620 colon) was 1.82 µM and the TGI (SW-620 colon) was 3.5 µM. For the same compound, the GI50 (ACHN renal) was 1.87 µM, the TGI (ACHN renal) was 3.92 µM and the GI50 (MDA-MB-468 breast) was 1.32 µM. It also gave a TGI (MDA-MB-468 breast) of 2.73 µM, a GI50 (HL-60(TB) leukemia) of 2.06 µM and a TGI (HL-60(TB) leukemia) of 5.15 µM. For the same compound, the GI50 (SF-295 CNS) was 1.84 µM, the TGI (SF-295 CNS) was 4.04 µM and the GI50 (HS 578T breast) was 12.6 µM. For the same compound, the TGI (HS 578T breast) was 55.5 µM, the GI50 (MDA-MB-231 breast) was 1.98 µM and the TGI (MDA-MB-231 breast) was 4.27 µM. It also gave a GI50 (SK-MEL-28 melanoma) of 2.1 µM, a TGI (SK-MEL-28 melanoma) of 4.97 µM and a GI50 (NCI-H522 lung) of 1.9 µM. The TGI (NCI-H522 lung) was 3.88 µM, the GI50 (SF-539 CNS) was 1.66 µM and the TGI (SF-539 CNS) was 3.22 µM. It also gave a GI50 (M14 melanoma) of 2.37 µM, a TGI (M14 melanoma) of 5.88 µM and a GI50 (HOP-92 NSCLC) of 2.16 µM. The TGI (HOP-92 NSCLC) was 4.58 µM, the GI50 (CCRF-CEM leukemia) was 3.32 µM and the TGI (CCRF-CEM leukemia) was 10.7 µM. The GI50 (PC-3 prostate) was 2.27 µM, the TGI (PC-3 prostate) was 5.79 µM and the GI50 (SNB-19 CNS) was 3.25 µM. The TGI (SNB-19 CNS) was 11.5 µM, the GI50 (SK-MEL-2 melanoma) was 2.63 µM and the TGI (SK-MEL-2 melanoma) was 7.51 µM. For the same compound, the GI50 (SN12C renal) was 10.1 µM, the TGI (SN12C renal) was 26.4 µM and the GI50 (MALME-3M melanoma) was 2.18 µM. It also gave a TGI (MALME-3M melanoma) of 5.19 µM, a GI50 (U251 CNS) of 1.81 µM and a TGI (U251 CNS) of 3.39 µM. For the same compound, the GI50 (TK-10 renal) was 2.27 µM, the TGI (TK-10 renal) was 7.2 µM and the GI50 (NCI-H226 lung) was 2.23 µM. For the same compound, the TGI (NCI-H226 lung) was 11.5 µM, the GI50 (BT-549 breast) was 13.8 µM and the TGI (BT-549 breast) was 28.6 µM. For the same compound, the GI50 (DU-145 prostate) was 3.18 µM, the TGI (DU-145 prostate) was 9.77 µM and the GI50 (RPMI-8226 leukemia) was 3.88 µM. It also gave a TGI (RPMI-8226 leukemia) of 34 µM, a GI50 (MOLT-4 leukemia) of 1.76 µM and a TGI (MOLT-4 leukemia) of 5.68 µM. It also gave a GI50 (MCF7 breast) of 1.77 µM, a TGI (MCF7 breast) of 3.31 µM and a GI50 (UO-31 renal) of 2.93 µM. For the same compound, the TGI (UO-31 renal) was 12.1 µM, the GI50 (SK-MEL-5 melanoma) was 4.35 µM and the TGI (SK-MEL-5 melanoma) was 17 µM. It also gave a GI50 (UACC-257 melanoma) of 12.5 µM, a TGI (UACC-257 melanoma) of 25.5 µM and a GI50 (KM12 colon) of 2.17 µM. The TGI (KM12 colon) was 4.87 µM, the GI50 (A549 NSCLC) was 2.13 µM and the TGI (A549 NSCLC) was 6.32 µM. The GI50 (MDA-MB-435) was 2.06 µM, the TGI (MDA-MB-435) was 4.48 µM and the GI50 (SF-268 CNS) was 7.39 µM. It also gave a TGI (SF-268 CNS) of 43.9 µM, a GI50 (OVCAR-4 ovarian) of 2.98 µM and a TGI (OVCAR-4 ovarian) of 9.01 µM. The GI50 (EKVX NSCLC) was 3.04 µM, the TGI (EKVX NSCLC) was 14.1 µM and the GI50 (COLO 205 colon) was 2.83 µM. It also gave a TGI (COLO 205 colon) of 6.04 µM, a GI50 (HCC-2998 colon) of 1.76 µM and a TGI (HCC-2998 colon) of 3.36 µM. It also gave a GI50 (NCI-H23 lung) of 2.63 µM, a TGI (NCI-H23 lung) of 7.83 µM and a GI50 (LOX IMVI melanoma) of 1.95 µM. It also gave a TGI (LOX IMVI melanoma) of 3.44 µM, a GI50 (T-47D breast) of 2.38 µM and a TGI (T-47D breast) of 7.3 µM. It also gave a GI50 (A498 renal) of 13.1 µM, a TGI (A498 renal) of 29.4 µM and a GI50 (HCT-15 colon) of 1.61 µM. For the same compound, the TGI (HCT-15 colon) was 3.02 µM, the GI50 (SK-OV-3 ovarian) was 18.6 µM and the TGI (SK-OV-3 ovarian) was 72.1 µM. For the same compound, the GI50 (SR leukemia) was 2.27 µM, the TGI (SR leukemia) was > 100 µM and the GI50 (786-0 renal) was 1.64 µM. It also gave a TGI (786-0 renal) of 3.06 µM, a GI50 (NCI-H460 lung) of 1.92 µM and a TGI (NCI-H460 lung) of 3.81 µM. The GI50 (HT29 colon) was 1.93 µM, the TGI (HT29 colon) was 3.84 µM and the GI50 (OVCAR-3 ovarian) was 3.23 µM. For the same compound, the TGI (OVCAR-3 ovarian) was 9.96 µM, the GI50 (OVCAR-5 ovarian) was 2.01 µM and the TGI (OVCAR-5 ovarian) was 6.48 µM. For the same compound, the GI50 (HOP-62 NSCLC) was 4.41 µM, the TGI (HOP-62 NSCLC) was 27.6 µM and the GI50 (HCT-116 colon) was 2.01 µM. For the same compound, the TGI (HCT-116 colon) was 4.03 µM, the GI50 (CAKI-1 renal) was 3.07 µM and the TGI (CAKI-1 renal) was 16.7 µM. It also gave a GI50 (IGROV1 ovarian) of 1.94 µM, a TGI (IGROV1 ovarian) of 4.47 µM and a GI50 (K-562 leukemia) of 2.4 µM. For the same compound, the TGI (K-562 leukemia) was 6.27 µM, the GI50 (UACC-62 melanoma) was 1.69 µM and the TGI (UACC-62 melanoma) was 3.6 µM.
